Laboratory results from patent US20220152144A1, “FOOD ADDITIVE INCLUDING MANNAN OLIGOSACCHARIDES TO ENHANCE ANIMAL PERFORMANCE AND METHOD OF USING THE SAME” (Vitech Bio-Chem Corporation, priority 2020, published 2022).

Columns and labels:
[1] = test system: Lactobacilli; assay: Bacterial counts in cecal samples of broiler chicks: Lactobacilli; assay type: in vivo; settings: 21 days, dose 45 ppm
Description: (§1) The trial was conducted for 42 days. Body weight gain, feed intake, and FCR was measured at 14, 28, and 42 days. Cecal levels of E. coli, Salmonella, and lactobacillus were evaluated at 21 days.

[2] = test system: E. coli; assay: Bacterial counts in cecal samples of broiler chicks: E. coli; assay type: in vivo; settings: 21 days, dose 45 ppm
Description: as §1

[3] = Growth performance of broiler chicks fed supplemented diets (Example 1); assay type: in vivo, broiler chicks (Cobb500); settings: dose 45 ppm
Description: Materials and Methods. Broiler chicks: A total of 960 1-day old broiler chicks (Name of breed: Cobb500™) (8 trt×6 rep×20 birds/pen) were randomly allocated to 8 treatment groups. Treatment groups: Treatment 1 was a corn/soybean meal diet (PC: 45 ppm avilamycin); Treatment 2 was a PC+50 g/T Fish hydrolysate+MOS (80:20 ratio); Treatment 3 was a PC+100 g/T Fish hydrolysate+MOS (80:20); and treatment 4 was PC+200 g/T Fish hydrolysate+MOS (80:20).
as §1
Measurements: Individual broiler weights and feed intake was collected in order to calculate body weight and body weight gain, feed intake, and gain-to-feed ratio by phase.
One-way ANOVA and Duncan's multiple range test was used to separate the means. There is no difference found between treatments. The overall mortality during the 42 days period is 3.65% and it is non-treatment specific.

COC[C@H]1O[C@@H](OC2OC[C@@H]3O[C@]4(O[C@H]3[C@H]2OC(=O)C(C)C)O[C@H](C)[C@@](O)(C(C)=O)[C@@H]2OCO[C@H]24)[C@@H](OC)[C@@H](O)[C@@H]1O[C@@H]1O[C@H](C)[C@H](OC)[C@H](O[C@H]2C[C@@]3(C)OC4(C[C@@H](O)[C@H](O[C@H]5C[C@@H](O)[C@H](OC(=O)c6c(C)c(Cl)c(O)c(Cl)c6OC)[C@@H](C)O5)[C@@H](C)O4)O[C@@H]3[C@@H](C)O2)[C@H]1O (stereo partly shown) [Avilamycin, avilamycin]
Lactobacilli Counts [1]: 7.21 Log10 CFU/g | E. coli Counts [2]: 7.29a Log10 CFU/g | body weight (BW) ([3]; Day 0-14): 442 g | body weight gain (BWG) ([3]; Day 0-14): 402 g | feed intake (FI) ([3]; Day 0-14): 583 g | food conversion ratio (FCR) ([3]; Day 0-14): 1.453 | body weight (BW) ([3]; Day 0-28): 1,550 g | body weight gain (BWG) ([3]; Day 0-28): 1,510 g | feed intake (FI) ([3]; Day 0-28): 2,212 g | food conversion ratio (FCR) ([3]; Day 0-28): 1.472 | body weight (BW) ([3]; Day 14-28): 1,550 g | body weight gain (BWG) ([3]; Day 14-28): 1,108 g | feed intake (FI) ([3]; Day 14-28): 1,628 g | food conversion ratio (FCR) ([3]; Day 14-28): 1.542 | body weight (BW) ([3]; d 28-42): 2,784 g | body weight gain (BWG) ([3]; d 28-42): 1,235 g | feed intake (FI) ([3]; d 28-42): 2,601 g | food conversion ratio (FCR) ([3]; d 28-42): 2.123 | body weight (BW) ([3]; overall 0-42 days): 2,784 g | body weight gain (BWG) ([3]; overall 0-42 days): 2,745 g | feed intake (FI) ([3]; overall 0-42 days): 4,813 g | food conversion ratio (FCR) ([3]; overall 0-42 days): 1.753
